Data on 14 compounds can be found in patent US20250129070A1, “BIFUNCTIONAL ANDROGEN RECEPTOR COMPOUNDS” (priority 2023, published 2025).

pEC50, pIC50: −log10 of the molar value.

For one test, the system named is VCaP cells. Kind of test: VCaP growth inhibition assay. The class given is cell-based. As to conditions: 30 pM R1881, 9 days, CTG. The method in brief:
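VCaP cells in phenol red-free DMEM/5% CSS, pre-incubated 72 h, then stimulated with R1881 (final 30 pM) and treated with 1:5 serial dilutions (final 100 nM to 10 fM) for 9 days at 37 °C. Viability by CellTiter-Glo luminescence; IC50 from 4-parameter logistic fit of RLU vs concentration.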

In another test the test system is AR / CBP ternary complex. The experiment in a line: Ternary complex formation assay (sandwich ELISA, AR capture / CBP detection) in VCaP cell lysates. It counts as cell-based. As to conditions: 1.5 hours treatment, sandwich ELISA (AR capture, CBP or p300 detection). In a few lines: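 VCaP cells (50K/well, 5% charcoal-stripped FBS, ≥3 days) treated with bifunctional compound for 1.5 h, then lysed 30 min at 4 °C. AR captured on anti-AR (AR 441) plates; bound CBP or p300 detected by rabbit mAb plus HRP secondary. QuantaRed chemifluorescence read at ex 570/em 585, immediately and at 5 and 15 min.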
A general note: In an ELISA, binding on a coated surface is turned into a signal by an enzyme label.

As a reminder, the pIC50 is −log10 of the IC50, conventionally taken in molar units. A lower pIC50 goes with a large IC50. Broadly, the pEC50 is the EC50 on a negative log10 scale, so that one unit is a factor of ten. Lower therefore signals a high EC50. As to `COc1cc(OC2C(C)(C)C(NC(=O)c3ccc(N4CCN(CCn5cc(-c6cc7cccc(-c8nn(C9CCOCC9)c9c8CN(C(C)=O)CC9)c7cn6)cn5)CC4)cc3)C2(C)C)ccc1C#N` (stereo not shown) [Compound 249, 4-[4-[2-[4-[8-(5-acetyl-1-tetrahydropyran-4-yl-6,7-dihydro-4H-pyrazolo[4,3-c]pyridin-3-yl)-3-isoquinolyl]pyrazol-1-yl]ethyl]piperazin-1-yl]-N-[3-(4-cyano-3-methoxy-phenoxy)-2,2,4,4-tetramethyl-cyclobutyl]benzamide], the negative logarithm of the IC50 (pIC50) with VCaP cells was 9.00 to 10.00. For the same compound, the pEC50 with AR / CBP ternary complex was more than 9.00.

For the compound `CC(=O)N1CCc2c(c(N3CCCc4cc(-c5cnn(C)c5)c(C(F)F)cc43)nn2C2CN(CC3CCN(c4ncc(C(=O)NC5C(C)(C)C(Oc6ccc(C#N)c(Cl)c6)C5(C)C)cn4)CC3)C2)C1` (stereo not shown) [Compound 10, 2-[4-[[3-[5-acetyl-3-[7-(difluoromethyl)-6-(1-methylpyrazol-4-yl)-3,4-dihydro-2H-quinolin-1-yl]-6,7-dihydro-4H-pyrazolo[4,3-c]pyridin-1-yl]azetidin-1-yl]methyl]-1-piperidyl]-N-[3-(3-chloro-4-cyano-phenoxy)-2,2,4,4-tetramethyl-cyclobutyl]pyrimidine-5-carboxamide], the negative-log IC50 (pIC50) in the test with VCaP cells is 7.00 to 9.00. The negative-log EC50 (pEC50) in the test with AR / CBP ternary complex is less than 7.00.

In the test on VCaP cells, `CC(=O)N1CCc2c(c(N3CCCc4cc(-c5cnn(C)c5)c(C(F)F)cc43)nn2C2CCN(CCOC3CCN(c4ncc(C(=O)NC5C(C)(C)C(Oc6ccc(C#N)c(Cl)c6)C5(C)C)cn4)CC3)CC2)C1` (stereo not shown) [Compound 170, 2-[4-[2-[4-[5-acetyl-3-[7-(difluoromethyl)-6-(1-methylpyrazol-4-yl)-3,4-dihydro-2H-quinolin-1-yl]-6,7-dihydro-4H-pyrazolo[4,3-c]pyridin-1-yl]-1-piperidyl]ethoxy]-1-piperidyl]-N-[3-(3-chloro-4-cyano-phenoxy)-2,2,4,4-tetramethyl-cyclobutyl]pyrimidine-5-carboxamide] showed a pIC50 of 9.00 to 10.00. The compound further gave a negative logarithm of the EC50 (pEC50) with AR / CBP ternary complex of more than 9.00.

As for `CC(=O)N1CCc2c(c(-c3cccc4cc(-c5ccc(COc6ncc(C(=O)NC7C(C)(C)C(Oc8ccc(C#N)c(Cl)c8)C7(C)C)cn6)nc5)ncc34)nn2C2CCOCC2)C1` (stereo not shown) [Compound 71, 2-[[5-[8-(5-acetyl-1-tetrahydropyran-4-yl-6,7-dihydro-4H-pyrazolo[4,3-c]pyridin-3-yl)-3-isoquinolyl]-2-pyridyl]methoxy]-N-[3-(3-chloro-4-cyano-phenoxy)-2,2,4,4-tetramethyl-cyclobutyl]pyrimidine-5-carboxamide], the pIC50 in the test with VCaP cells was 7.00 to 9.00. The compound further had a negative-log EC50 (pEC50) in the test on AR / CBP ternary complex of more than 9.00.

The compound `COc1cc(OC2C(C)(C)C(NC(=O)c3ccc(N4CCC5(CC(N6CCC(n7nc(N8CCCc9cc(-c%10cnn(C)c%10)c(C(F)F)cc98)c8c7CCN(C(C)=O)C8)CC6)C5)C4)cc3)C2(C)C)ccc1C#N` (stereo not shown) [Compound 347, 4-[2-[4-[5-acetyl-3-[7-(difluoromethyl)-6-(1-methylpyrazol-4-yl)-3,4-dihydro-2H-quinolin-1-yl]-6,7-dihydro-4H-pyrazolo[4,3-c]pyridin-1-yl]-1-piperidyl]-6-azaspiro[3.4]octan-6-yl]-N-[3-(4-cyano-3-methoxy-phenoxy)-2,2,4,4-tetramethyl-cyclobutyl]benzamide] had a pIC50 in the test with VCaP cells not below 10.00. The same compound gave a pEC50 in the test on AR / CBP ternary complex of more than 9.00.

`CC(=O)N1CCc2c(c(-c3cccc4cc(-c5cnn(CC6CCN(c7ncc(C(=O)NC8C(C)(C)C(Oc9ccc(C#N)c(Cl)c9)C8(C)C)cn7)CC6)c5)ncc34)nn2C)C1` (stereo not shown) [Compound 215, 2-[4-[[4-[8-(5-acetyl-1-methyl-6,7-dihydro-4H-pyrazolo[4,3-c]pyridin-3-yl)-3-isoquinolyl]pyrazol-1-yl]methyl]-1-piperidyl]-N-[3-(3-chloro-4-cyano-phenoxy)-2,2,4,4-tetramethyl-cyclobutyl]pyrimidine-5-carboxamide] gave a negative logarithm of the IC50 (pIC50) in the test with VCaP cells of 9.00 to 10.00. The negative logarithm of the EC50 (pEC50) with AR / CBP ternary complex was more than 9.00.

`COc1cc(OC2C(C)(C)C(NC(=O)c3ccc(N4CC(N5CCCC6(CCC(n7nc(N8CCCc9cc(-c%10cnn(C)c%10)c(C(F)F)cc98)c8c7CCN(C(C)=O)C8)CC6)C5)C4)cc3)C2(C)C)ccc1C#N` (stereo not shown) [Compound 415, 4-[3-[9-[5-acetyl-3-[7-(difluoromethyl)-6-(1-methylpyrazol-4-yl)-3,4-dihydro-2H-quinolin-1-yl]-6,7-dihydro-4Hpyrazolo[4,3-c]pyridin-1-yl]-2-azaspiro[5.5]undecan-2-yl]azetidin-1-yl]-N-[3-(4-cyano-3-methoxy-phenoxy)-2,2,4,4-tetramethyl-cyclobutyl]benzamide] gave a negative logarithm of the IC50 (pIC50) with VCaP cells of 7.00 to 9.00. This compound showed a negative logarithm of the EC50 (pEC50) in the test on AR / CBP ternary complex of 8.00 to 9.00.

With `COc1cc(OC2C(C)(C)C(NC(=O)c3ccc(N4CCC(C(=O)N5CCC(n6nc(-c7cccc8cc(C9CC9)c(C(F)F)cc78)c7c6CCN(C(C)=O)C7)CC5)CC4)cc3)C2(C)C)ccc1C#N` (stereo not shown) [Compound 257, 4-[4-[4-[5-acetyl-3-[6-cyclopropyl-7-(difluoromethyl)-1-naphthyl]-6,7-dihydro-4H-pyrazolo[4,3-c]pyridin-1-yl]piperidine-1-carbonyl]-1-piperidyl]-N-[3-(4-cyano-3-methoxy-phenoxy)-2,2,4,4-tetramethyl-cyclobutyl]benzamide], the pIC50 in the test on VCaP cells is 9.00 to 10.00. The compound further showed a pEC50 in the test on AR / CBP ternary complex of more than 9.00.

In the test with VCaP cells, `CC(=O)N1CCc2c(c(N3CCCc4cc(-c5cnn(C)c5)c(C(F)F)cc43)nn2C2CCN(CC#Cc3ncc(C(=O)NC4C(C)(C)C(Oc5ccc(C#N)c(Cl)c5)C4(C)C)cn3)CC2)C1` (stereo not shown) [Compound 19, 2-[3-[4-[5-acetyl-3-[7-(difluoromethyl)-6-(1-methylpyrazol-4-yl)-3,4-dihydro-2H-quinolin-1-yl]-6,7-dihydro-4H-pyrazolo[4,3-c]pyridin-1-yl]-1-piperidyl]prop-1-ynyl]-N-[3-(3-chloro-4-cyano-phenoxy)-2,2,4,4-tetramethyl-cyclobutyl]pyrimidine-5-carboxamide] showed a pIC50 of 9.00 to 10.00. The compound also gave a pEC50 in the test with AR / CBP ternary complex of more than 9.00.

For `CC(=O)N1CCc2c(c(N3CCCc4cc(-c5cnn(C)c5)c(C(F)F)cc43)nn2C2CCN(CCc3ncc(C(=O)NC4C(C)(C)C(Oc5ccc(C#N)c(Cl)c5)C4(C)C)cn3)CC2)C1` (stereo not shown) [Compound 92, 2-[2-[4-[5-acetyl-3-[7-(difluoromethyl)-6-(1-methylpyrazol-4-yl)-3,4-dihydro-2H-quinolin-1-yl]-6,7-dihydro-4H-pyrazolo[4,3-c]pyridin-1-yl]-1-piperidyl]ethyl]-N-[3-(3-chloro-4-cyano-phenoxy)-2,2,4,4-tetramethyl-cyclobutyl]pyrimidine-5-carboxamide], the pIC50 in the test on VCaP cells was less than 7.00. The negative-log EC50 (pEC50) in the test on AR / CBP ternary complex is less than 7.00.

In the test with VCaP cells, `CC(=O)N1CCc2c(c(N3CCCc4cc(-c5cnn(C)c5)c(C(F)F)cc43)nn2C2CCC(OC3CCN(c4ncc(C(=O)NC5C(C)(C)C(Oc6ccc(C#N)c(Cl)c6)C5(C)C)cn4)CC3)CC2)C1` (stereo not shown) [Compound 339, 2-[4-[4-[5-acetyl-3-[7-(difluoromethyl)-6-(1-methylpyrazol-4-yl)-3,4-dihydro-2H-quinolin-1-yl]-6,7-dihydro-4H-pyrazolo[4,3-c]pyridin-1-yl]cyclohexoxy]-1-piperidyl]-N-[3-(3-chloro-4-cyano-phenoxy)-2,2,4,4-tetramethyl-cyclobutyl]pyrimidine-5-carboxamide] showed a pIC50 not below 10.00. This compound also had a negative logarithm of the EC50 (pEC50) in the test on AR / CBP ternary complex of more than 9.00.

For `CC(=O)N1CCc2c(c(N3CCCc4cc(-c5cnn(C)c5)c(C(F)F)cc43)nn2C2CC3(CCN(C4CCN(c5ncc(C(=O)NC6C(C)(C)C(Oc7ccc(C#N)c(Cl)c7)C6(C)C)cn5)CC4)CC3)C2)C1` (stereo not shown) [Compound 373, 2-[4-[2-[5-acetyl-3-[7-(difluoromethyl)-6-(1-methylpyrazol-4-yl)-3,4-dihydro-2H-quinolin-1-yl]-6,7-dihydro-4H-pyrazolo[4,3-c]pyridin-1-yl]-7-azaspiro[3.5]nonan-7-yl]-1-piperidyl]-N-[3-(3-chloro-4-cyano-phenoxy)-2,2,4,4-tetramethyl-cyclobutyl]pyrimidine-5-carboxamide], the pIC50 in the test on VCaP cells is not below 10.00. Moreover, the negative logarithm of the EC50 (pEC50) in the test on AR / CBP ternary complex is more than 9.00.

In the test with VCaP cells, `CC(=O)N1CCc2c(c(N3CCCc4ccccc43)nn2C2CCN(C(=O)C3CCN(c4ncc(C(=O)NC5C(C)(C)C(Oc6ccc(C#N)c(Cl)c6)C5(C)C)cn4)CC3)CC2)C1` (stereo not shown) [Compound 129, 2-[4-[4-[5-acetyl-3-(3,4-dihydro-2H-quinolin-1-yl)-6,7-dihydro-4H-pyrazolo[4,3-c]pyridin-1-yl]piperidine-1-carbonyl]-1-piperidyl]-N-[3-(3-chloro-4-cyano-phenoxy)-2,2,4,4-tetramethyl-cyclobutyl]pyrimidine-5-carboxamide] showed a negative logarithm of the IC50 (pIC50) not below 10.00. For the same compound, the pEC50 in the test on AR / CBP ternary complex is more than 9.00.

In the test with VCaP cells, `CC(=O)N1CCc2c(c(N3CCCc4cc(-c5cnn(C)c5)c(C(F)F)cc43)nn2C2CCC(CN3CCN(c4ncc(C(=O)NC5C(C)(C)C(Oc6ccc(C#N)c(Cl)c6)C5(C)C)cn4)CC3)CC2)C1` (stereo not shown) [Compound 320, 2-[4-[[4-[5-acetyl-3-[7-(difluoromethyl)-6-(1-methylpyrazol-4-yl)-3,4-dihydro-2H-quinolin-1-yl]-6,7-dihydro-4H-pyrazolo[4,3-c]pyridin-1-yl]cyclohexyl]methyl]piperazin-1-yl]-N-[3-(3-chloro-4-cyano-phenoxy)-2,2,4,4-tetramethyl-cyclobutyl]pyrimidine-5-carboxamide] gave a negative-log IC50 (pIC50) of 9.00 to 10.00. In the test on AR / CBP ternary complex, this compound gave a pEC50 of more than 9.00.
